In patent US20020183313A1, “1,4-benzodiazepinones and their uses as CCK antagonists” (Fujisawa Pharmaceutical Co., Ltd., priority 1996, published 2002):

Experiments:
[1] = system: mice; assay: Gastric emptying in mice; format: in vivo
Method: (§1) Receptor binding studies and gastric emptying in mice
(§2) The tests were carried out in accordance with the method described at pages 571 to 572 in the following literature;
(§3) Harunobu Ito, Hajime Sogabe et al., The Journal of Pharmacology and Experimental Therapeutics, 571, No.2, Vol.268 (1994).

[2] = target: T1, CCK-B (UniProt H0VZC5); assay: Receptor binding studies, CCK-B
T1 construct: IC50 (nM) for CCK-B
T1 sequence (H0VZC5 1-426): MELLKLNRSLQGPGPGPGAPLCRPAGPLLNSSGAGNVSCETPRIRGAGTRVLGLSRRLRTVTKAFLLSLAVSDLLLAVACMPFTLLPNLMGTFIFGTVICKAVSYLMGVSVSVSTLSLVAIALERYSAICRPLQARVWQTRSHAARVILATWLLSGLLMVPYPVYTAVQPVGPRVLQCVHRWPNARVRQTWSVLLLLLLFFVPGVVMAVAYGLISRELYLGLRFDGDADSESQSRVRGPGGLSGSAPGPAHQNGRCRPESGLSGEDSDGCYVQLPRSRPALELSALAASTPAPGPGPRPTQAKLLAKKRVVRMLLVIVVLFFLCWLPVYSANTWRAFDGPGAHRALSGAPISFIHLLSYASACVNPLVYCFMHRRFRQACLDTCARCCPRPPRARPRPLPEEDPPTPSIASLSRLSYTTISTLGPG
Method: as §1, §2, §3

[3] = system: CCK-B; assay: Receptor binding studies, CCK-B; conditions: ratio IC50 CCK-A / IC50 CCK-B
Method: as §1, §2, §3

[4] = target: T2, CCK-A (UniProt P30551); assay: Receptor binding studies, CCK-A
T2 sequence (P30551 1-444): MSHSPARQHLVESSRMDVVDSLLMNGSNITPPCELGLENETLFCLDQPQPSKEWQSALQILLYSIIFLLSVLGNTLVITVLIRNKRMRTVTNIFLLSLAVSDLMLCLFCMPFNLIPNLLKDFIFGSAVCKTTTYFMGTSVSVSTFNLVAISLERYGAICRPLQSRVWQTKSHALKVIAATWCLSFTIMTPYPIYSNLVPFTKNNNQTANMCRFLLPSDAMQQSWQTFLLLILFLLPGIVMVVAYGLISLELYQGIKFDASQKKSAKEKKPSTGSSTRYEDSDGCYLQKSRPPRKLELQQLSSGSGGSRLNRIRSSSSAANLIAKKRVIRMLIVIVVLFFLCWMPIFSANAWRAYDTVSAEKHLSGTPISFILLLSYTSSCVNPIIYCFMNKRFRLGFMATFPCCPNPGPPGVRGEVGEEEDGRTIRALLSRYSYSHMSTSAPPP
Method: as §1, §2, §3

[5] = target: T3, guinea-pig cerebral cortical membranes (125I-CCK-8 binding) (Cavia porcellus, UniProt H0VZC5); assay: [125I]CCK-8 binding to guinea-pig cerebral cortical membranes; conditions: test compound 1×10^−8 M; 50 pM 125I-CCK-8; 60 minutes at 37° C.
T3 construct: from tissue; host or cells: guinea-pig cerebral cortex membranes
T3 sequence (H0VZC5 1-426): T1 sequence (H0VZC5 1-426)
Method: [^125I]CCK-8 binding to guinea-pig cerebral cortical membranes
Guinea-pigs were killed by decapitation and bled to death. Cerebral cortex was removed, minced in a small quantity of 50 mM Tris-HCl buffer (pH 7.4), and homogenized in 20 vol. of the buffer by a glass-teflon homogenizer. The homogenate was centrifuged at 30000× g (16000 rpm) for 10 minutes. The pellet was then resuspended in the same buffer by a glass-teflon homogenizer and recentrifuged at 30000× g for 10 minutes. This procedure (washings) was repeated twice more. The final pellet (membrane) was suspended in incubation medium (see below) so as to obtain a final protein concentration of 4 mg/ml and frozen at −80° C. All manipulations were done at 0-4° C.
(ii) Receptor Binding Assay
The composition of incubation medium was as follows:
10 mM HEPES (pH 6.5), 5 mM MgCl2, 1 mM EGTA, 130 mM NaCI and 0.25 mg/ml bacitracin. Frozen membranes were thawed and aliquots (400 μg, protein) were incubated for 60 minutes under shaking at 37° C. in plastic tubes in 500 μL of incubation medium with 50 pM ^125I-CCK-8 in the presence or absence of test compound (1×10^−8 M). […] After washing the filter with 50 mM Tris-HCl (pH 7.4) buffer containing 0.1% BSA, the radioactivity of the filter was countered. […] The effect of the test compound was expressed as % inhibition of specific ′^125I-CCK-8 binding.

Row | Structure (SMILES) | Gastric emptying ID50 [1] | IC50 [2] | selectivity A/B [3] | melting point | IC50 [4] | Inhibition (%) of specific 125I-CCK-8 binding [5]
1 | Cc1cccc(NC(=O)NC2N=C(C3CC3)c3cccc(C)c3N(CC(=O)C3CCCCC3)C2=O)c1 (racemic) [(D), N-[(3RS)-1-cyclohexylcarbonylmethyl-5-cyclopropyl-2,3-dihydro-9-methyl-2-oxo-1H-1,4-benzodiazepin-3-yl]-N′-(3-methylphenyl)urea] | 1.8 mg/kg | 1.1 nM | 1.82 | 143.6 to 144.2 °C | 2 nM | 
2 | CC(=O)c1sccc1CN1C(=O)C(NC(=O)Nc2cccc(C)c2)N=C(C(C)C)c2ccccc21 (racemic) [(2)] |  |  |  |  |  | 97%
3 | CC1=NC(NC(=O)Nc2cccc(C)c2)C(=O)N(CC(=O)C2CCCCC2)c2c(C)cccc21 (racemic) [Compound (A), N-[(3RS)-1-cyclohexylcarbonylmethyl-2,3-dihydro-5,9-dimethyl-2-oxo-1H-1,4-benzodiazepin-3-yl]-N′-(3-methylphenyl)urea] | 0.4 mg/kg | 3.7 nM | 0.30 | 179.2 to 180.9 °C | 1.1 nM | 
4 | CCC1=NC(NC(=O)Nc2cccc(C)c2)C(=O)N(CC(=O)C2CCCCC2)c2c(C)cccc21 (racemic) [(B), N-[(3RS)-1-cyclohexylcarbonylmethyl-2,3-dihydro-5-ethyl-9-methyl-2-oxo-1H-1,4-benzodiazepin-3-yl]-N′-(3-methylphenyl)urea] | 0.4 mg/kg | 1.6 nM | 0.56 | 161.2 to 164 °C | 0.9 nM | 
5 | CCC1=N[C@@H](NC(=O)Nc2cccc(C)c2)C(=O)N(CC(=O)C2CCCCC2)c2c(C)cccc21 [(C), N-[(3R)-1-cyclohexylcarbonylmethyl-5-ethyl-9-methyl-2-oxo-2,3-dihydro-1H-1,4-benzodiazepin-3-yl]-N′-(3-methylphenyl)urea] | 0.23 mg/kg | 1 nM | 0.30 |  | 0.3 nM | 
6 | Cc1cccc(NC(=O)NC2N=C(C=CC(=O)O)c3cccc(C)c3N(CC(=O)N3CCCCCCC3)C2=O)c1 (racemic) [75(1)-2, N-[(3RS)-1-(azacyclooctan-1-yl)carbonylmethyl-2,3-dihydro-5-((EZ)-2-carboxylethenyl)-9-methyl-2-oxo-1H-1,4-benzodiazepin-3-yl]-N′-(3-methylphenyl)urea] |  |  |  | 129.3 to 134.1 °C |  | 
7 | CC1=NC(NC(=O)Nc2cccc(N(C)C)c2)C(=O)N(CC(=O)N2CC3CCC(CC3)C2)c2c(C)cccc21.Cl (racemic) |  |  |  | 190.9 to 193.1 °C |  | 
8 | Cc1ccccc1C(=O)CN1C(=O)C(NC(=O)c2cc3ccccc3[nH]2)N=C(C2CCCCC2)c2cccc(C)c21 (racemic) [24(2), (3RS)-5-Cyclohexyl-2,3-dihydro-3-(indol-2-yl)carbonylamino-9-methyl-1-(2-methylphenacyl)-1H-1,4-benzodiazepin-2-one] |  |  |  | 126.7 to 145.2 °C |  | 
9 | Cc1cccc(NC(=O)NC2N=C(C(C)C)c3ccccc3N(CC(=O)N3CC4CCC(CC4)C3)C2=O)c1 (racemic) |  |  |  | 123 to 126 °C |  | 
10 | CC(=O)c1sccc1CN1C(=O)C(NC(=O)Nc2cccc(C)c2)N=C(CC(C)C)c2ccccc21 (racemic) [Example 6(3), N-[(3RS)-2,3-dihydro-5-(2-methylpropyl)-1-(2-methylcarbonylthiophen-3-yl)methyl-2-oxo-1,4-benzodiazepin-3-yl]-N′-(3-methylphenyl)urea] |  |  |  | 215 to 218 °C |  | 
11 | CC(=O)c1sccc1CN1C(=O)C(NC(=O)Nc2cccc(C)c2)N=C(C)c2ccccc21 (racemic) [8(3), N-[(3RS)-1-(2-acetylthiophen-3-yl)methyl-2,3-dihydro-5-methyl-2-oxo-1H-1,4-benzodiazepin-3-yl]-N′-(3-methylphenyl)urea] |  |  |  | 215 to 219 °C |  | 
12 | Cc1ccccc1C(=O)CN1C(=O)C(NC(=O)Nc2cccc(C(=O)O)c2)N=C(c2ccccc2F)c2cccc(C)c21 (racemic) |  |  |  | 168.1 to 176.3 °C |  | 
